Literature values, collected in patent US20110064816A1 (DR. REDDY'S LABORATORIES LTD., priority 2008, published 2011).
Where a name gives a salt, the structure may show the parent alone.

Settings: exposed to heat, moisture, light and low pH conditions

In the case of `CC(C)c1c(C(=O)Nc2ccccc2)c(-c2ccccc2)c(-c2ccc(F)cc2)n1CC[C@@H](O)C[C@@H](O)CC(=O)O` (relative stereo) [Atorvastatin calcium, [R-(R*,R*)]-2-(4-fluorophenyl)-β,δ-dihydroxy-5-(1-methylethyl)-3-phenyl-4-[(phenylamino)carbonyl]-1H-pyrrole-1-heptanoic acid, calcium salt (2:1) trihydrate], the “Degradation from the carboxylic form to a lactone form” value is given as “susceptible to degradation”.
